Source: ChEMBL document CHEMBL3045379, “Synthesis and Fungicidal Activity of 3-1, 2, 4-Thiadiazolines” (J Pestic Sci, 1992)
The source made the active and inactive calls. No cut-off for these calls is given here.

Tests used:
[1] = system: Pseudoperonospora cubensis; experiment: Fungicidal activity against Pseudoperonospora cubensis infected in cucumber cv. Sagamihanjiro seedling assessed as reduction in leaf lesion after 4 days by pot test; format: functional, organism-based
[2] = system: Pseudoperonospora cubensis; experiment: Fungicidal activity against Pseudoperonospora cubensis infected cucumber cv. Sagamihanjiro seedling assessed as inhibition of zoospore liberation from zoosporangia after 4 days by microscopic analysis in presence of cysteine; format: functional, organism-based
[3] = Chemical stability of the compound in ethanol solution after 1 week; format: physicochemical; conditions: 168 h
[4] = system: Pseudoperonospora cubensis; experiment: Fungicidal activity against Pseudoperonospora cubensis infected cucumber cv. Sagamihanjiro seedling assessed as inhibition of zoospore liberation from zoosporangia after 4 days by microscopic analysis; format: functional, organism-based
[5] = Chemical stability of the compound in THF solution after 1 day; format: physicochemical; conditions: 24 h
[6] = Chemical stability of the compound in acetonitrile solution after 1 day; format: physicochemical; conditions: 24 h
[7] = Chemical stability of the compound in acetone solution after 1 day; format: physicochemical; conditions: 24 h
Homo sapiens = species on record: Homo sapiens; experiment: Inhibition of ADH (unknown origin) at 3 ug/ml after 1 hr

Compound	EC50 [1]	further results
Cc1n/c(=N\c2ccc(Cl)cc2)sn1C	66.9 ppm	
Cn1s/c(=N/c2ccc(Br)cc2)nc1-c1ccccc1	17.9 ppm	
Cn1o/c(=N/c2ccc(Cl)cc2)nc1-c1ccc(Cl)cc1	> 400 ppm	
Cn1s/c(=N/c2ccc(F)cc2)nc1-c1ccc(Cl)cc1	22.1 ppm	
Cn1s/c(=N/c2ccc(C(C)(C)C)cc2)nc1-c1ccc(Cl)cc1	14 ppm	
Br.Cn1s/c(=N/C2CCCCC2)nc1-c1ccccc1	> 400 ppm	
Cn1s/c(=N/c2ccc(O)cc2)nc1-c1ccccc1	39.6 ppm	
COc1ccc(/N=c2\nc(-c3ccc(Cl)cc3)n(C)s2)cc1	11 ppm	
CC1(C)Cn2s/c(=N/c3ccc(Cl)cc3)nc2S1	35.5 ppm	
CCc1ccc(/N=c2\nc(-c3ccc(Cl)cc3)n(C)s2)cc1	21.8 ppm	
Cn1s/c(=N/c2ccccc2)nc1-c1ccccc1	45.3 ppm	
CN(c1ccccc1)c1n/c(=N\c2ccc(Cl)cc2)sn1C	37.5 ppm	
CC(C)n1s/c(=N/c2ccc(Cl)cc2)nc1-c1ccccc1	72.9 ppm	
CN(C)c1ccc(/N=c2\nc(-c3ccc(Cl)cc3)n(C)s2)cc1	141.5 ppm	
COc1n/c(=N\c2ccc(Cl)cc2)sn1C	> 400 ppm	
Cn1s/c(=N/c2ccc(Nc3ccccc3)cc2)nc1-c1ccccc1	81 ppm	
Cn1s/c(=N/c2ccc(Cl)cc2)nc1Cc1ccccc1	79.1 ppm	
Cn1s/c(=N/c2cccc(Cl)c2)nc1-c1ccc(Cl)cc1	25.9 ppm	
Cc1ccc(/N=c2\nc(-c3ccc(Cl)cc3)n(C)s2)cc1C	13.2 ppm	
CCn1s/c(=N/c2cccc([N+](=O)[O-])c2)nc1-c1ccccc1	63.1 ppm	
CCOC(=O)C1CN(c2ccc(Cl)cc2)/C(=N/C(=N/C)c2ccccc2)S1 (stereo not drawn)	92.8 ppm	
Cn1s/c(=N/C(=O)c2ccc(Cl)cc2)nc1-c1ccc(Cl)cc1	400 ppm	
Cc1ccc(/N=c2\nc(-c3ccc(Cl)cc3)n(C)s2)cc1	9.2 ppm	
Cn1s/c(=N/c2ccc(Cl)cc2)nc1C(Cl)(Cl)Cl	37 ppm	
C/N=C(/N=c1\sn(-c2ccccc2)c(=S)n1-c1ccc(Cl)cc1)c1ccccc1	33.6 ppm	
Cn1s/c(=N/c2ccc(Oc3ccc(Cl)cc3)cc2)nc1-c1ccccc1	31.9 ppm	

Compound	EC50 [1]	further results
CCn1s/c(=N/c2ccc(Br)cc2)nc1-c1ccccc1	70.2 ppm	
Cn1s/c(=N/c2ccc(-c3ccccc3)cc2)nc1-c1ccccc1	23.1 ppm	
CCCc1ccc(/N=c2\nc(-c3ccc(Cl)cc3)n(C)s2)cc1	23.8 ppm	
Clc1ccc(Nc2nc(-c3ccccc3)ns2)cc1	Not Active	
Cn1s/c(=N/c2ccc(Cl)cc2)nc1-c1ccc(Cl)c(Cl)c1	9.5 ppm	
CN(C)C(=O)n1s/c(=N/c2ccc(Cl)cc2)nc1-c1ccccc1	87.5 ppm	
Cn1s/c(=N/c2ccccc2-c2ccccc2)nc1-c1ccccc1	30.4 ppm	
CCOc1n/c(=N\c2ccc(Cl)cc2)sn1C	308.1 ppm	
Cn1s/c(=N/c2ccc([N+](=O)[O-])cc2)nc1-c1ccccc1	> 400 ppm	
CCSc1n/c(=N\c2ccc(Cl)cc2)sn1C	36.2 ppm	
Cn1s/c(=N/c2cccc(Cl)c2Cl)nc1-c1ccc(Cl)cc1	179 ppm	
CCc1n/c(=N\c2ccc(Cl)cc2)sn1C	352.6 ppm	
CCn1s/c(=N/c2cc(Cl)cc(Cl)c2)nc1-c1ccc(Cl)cc1	86.7 ppm	
C/N=C(/N=c1\snc(-c2ccccc2)n1-c1ccc(Cl)cc1)c1ccccc1	45.3 ppm	
CN(C)c1n/c(=N\c2ccc(Cl)cc2)sn1C	52.5 ppm	
Cn1s/c(=N/c2ccc(Cl)cc2)nc1-c1ccccc1Cl	11.6 ppm	
Clc1ccc(/N=c2\nc(-c3ccc(Cl)cc3)n(Cc3ccccc3)s2)cc1	43.3 ppm	
CCN(CC)c1n/c(=N\c2ccc(Cl)cc2)sn1C	13.1 ppm	
Cc1ccc(-c2n/c(=N\c3ccc(Cl)cc3)sn2C)cc1	37.4 ppm	
Cn1s/c(=N/c2ccc(Br)cc2)nc1-c1ccc(Cl)cc1	12 ppm	
Cn1s/c(=N/c2ccc(Cl)cc2)nc1-c1ccco1	8.4 ppm	
CCCn1s/c(=N/c2ccc(C)cc2)nc1-c1ccccc1	141.5 ppm	
Cn1s/c(=N/c2ccc(Cl)cc2)nc1-c1cccc(Cl)c1	25.2 ppm	
Cc1cccc(/N=c2\nc(-c3ccc(Cl)cc3)n(C)s2)c1C	25 ppm	
Cc1cc(C)cc(/N=c2\nc(-c3ccc(Cl)cc3)n(C)s2)c1	26.4 ppm	
Cc1cccc(/N=c2\nc(-c3ccc(Cl)cc3)n(C)s2)c1	26.1 ppm	

Compound	EC50 [1]	further results
Cc1cccc(C)c1/N=c1\nc(-c2ccccc2)n(C)s1	128.1 ppm	
CCn1s/c(=N/c2ccc(Cl)cc2)nc1-c1ccc(Cl)cc1	80.4 ppm	
Clc1ccc(/N=c2\nc3n(s2)CCS3)cc1	68.6 ppm	
Cn1s/c(=N/c2ccc(Cl)cc2)nc1-c1cc(Cl)cc(Cl)c1	66.8 ppm	
Cn1s/c(=N/c2ccc(Cl)cc2Cl)nc1-c1ccccc1	63.4 ppm	
Clc1ccc(/N=c2\nc3n(s2)CCCS3)cc1	> 400 ppm	
CCCn1s/c(=N/c2ccc(Cl)cc2)nc1-c1ccccc1	9.9 ppm	
Cn1s/c(=N/c2ccc(Cl)cc2)nc1-c1ccc(Cl)cc1	7.2 ppm	
Cn1s/c(=N/c2ccc(Cl)c(Cl)c2)nc1-c1ccc(Cl)cc1	24.7 ppm	
CCCCc1ccc(/N=c2\nc(-c3ccc(Cl)cc3)n(C)s2)cc1	30.4 ppm	
CSc1n/c(=N\c2ccc(Cl)cc2)sn1C	94.9 ppm	
Cn1s/c(=N/c2ccc(Cl)cc2)nc1-c1ccccc1	5.7 ppm	inhibition [2]: inactive; Stability [3]: Stable; inhibition [4]: Active; Stability [5]: Unstable; Stability [6]: Unstable; Stability [7]: Unstable; inhibition (Homo sapiens): Active
Cn1s/c(=N/c2ccc(Cl)cc2)nc1-c1ccc([N+](=O)[O-])cc1	29.7 ppm	
COc1ccc(-c2n/c(=N\c3ccc(Cl)cc3)sn2C)cc1	132.7 ppm	
Cn1s/c(=N/c2ccccc2)nc1-c1ccc(Cl)cc1	23.4 ppm	
Br.CC/N=c1\nc(-c2ccccc2)n(CC)s1	> 400 ppm	
Cn1s/c(=N/c2ccc(Br)cc2)nc1-c1ccc(Cl)cc1Cl	131.1 ppm	
CCn1s/c(=N/c2ccc(Cl)cc2)nc1-c1ccccc1	13.6 ppm	
CC(C)c1n/c(=N\c2ccc(Cl)cc2)sn1C	252.7 ppm	
C/N=C(/N=c1\ssc(=S)n1-c1ccc(Cl)cc1)c1ccccc1	84.1 ppm	
Clc1ccc(/N=c2\nc(-c3ccc(Cl)cc3)n(-c3ccccc3)s2)cc1	> 400 ppm	
Cn1s/c(=N/c2ccc(I)cc2)nc1-c1ccccc1	100 ppm	
Cc1ccc(/N=c2\nc(-c3ccccc3)n(C)s2)cc1	60.2 ppm	
Cn1s/c(=N/c2ccc(Cl)cc2)nc1SCc1ccccc1	46.2 ppm	
